Results: PubChem BioAssay (NCI)
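Test compounds were applied to cells in 96-well plates for 48 hours at 5 doses. The concentration for full growth arrest is given as TGI.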

Key:
Assay in all cases: inhibition of tumour cell growth, NCI panel, 48 h
[1] = tested on: TK-10 renal
[2] = tested on: DLD-1 colon
[3] = tested on: M19-MEL melanoma
[4] = tested on: HCT-116 colon
[5] = tested on: KM20L2 colon
[6] = tested on: MALME-3M melanoma
[7] = tested on: 786-0 renal
[8] = tested on: ACHN renal
[9] = tested on: SNB-19 CNS
[10] = tested on: MOLT-4 leukemia
[11] = tested on: SN12C renal
[12] = tested on: DMS 114 small cell lung
[13] = tested on: SK-MEL-28 melanoma
[14] = tested on: HL-60(TB) leukemia
[15] = tested on: A498 renal
[16] = tested on: HCC-2998 colon
[17] = tested on: UACC-62 melanoma
[18] = tested on: LXFL 529 NSCLC
[19] = tested on: SR leukemia
[20] = tested on: IGROV1 ovarian
[21] = tested on: NCI-H23 lung
[22] = tested on: OVCAR-3 ovarian
[23] = tested on: HCT-15 colon
[24] = tested on: SNB-75 CNS
[25] = tested on: SF-295 CNS
[26] = tested on: NCI-H522 lung
[27] = tested on: U251 CNS
[28] = tested on: EKVX NSCLC
[29] = tested on: SK-OV-3 ovarian
[30] = tested on: HOP-18 NSCLC
[31] = tested on: SK-MEL-5 melanoma
[32] = tested on: OVCAR-5 ovarian
[33] = tested on: UO-31 renal
[34] = tested on: HOP-62 NSCLC
[35] = tested on: RXF 393 renal
[36] = tested on: KM12 colon
[37] = tested on: LOX IMVI melanoma
[38] = tested on: A549 NSCLC
[39] = tested on: CCRF-CEM leukemia
[40] = tested on: NCI-H460 lung
[41] = tested on: UACC-257 melanoma
[42] = tested on: M14 melanoma
[43] = tested on: K-562 leukemia
[44] = tested on: SF-539 CNS
[45] = tested on: SW-620 colon
[46] = tested on: XF 498 CNS
[47] = tested on: NCI-H226 lung
[48] = tested on: OVCAR-8 ovarian
[49] = tested on: HT29 colon
[50] = tested on: COLO 205 colon
[51] = tested on: RPMI-8226 leukemia
[52] = tested on: OVCAR-4 ovarian
[53] = tested on: SNB-78 CNS
[54] = tested on: HOP-92 NSCLC
[55] = tested on: DMS 273 small cell lung
[56] = tested on: CAKI-1 renal
[57] = tested on: SK-MEL-2 melanoma
[58] = tested on: SF-268 CNS

## O=S1OC2(c3ccccc3-c3ccccc32)c2ccccc21 (stereo not drawn)
[1]
  TGI: > 100 µM
[2]
  TGI: > 100 µM
[3]
  TGI: > 100 µM
[4]
  TGI: > 100 µM
[5]
  TGI: > 100 µM
[6]
  TGI: > 100 µM
[7]
  TGI: > 100 µM
[8]
  TGI: > 100 µM
[9]
  TGI: > 100 µM
[10]
  TGI: > 100 µM
[11]
  TGI: > 100 µM
[12]
  TGI: > 100 µM
[13]
  TGI: > 100 µM
[14]
  TGI: > 100 µM
[15]
  TGI: > 100 µM
[16]
  TGI: > 100 µM
[17]
  TGI: > 100 µM
[18]
  TGI: > 100 µM
[19]
  TGI: > 100 µM
[20]
  TGI: > 100 µM
[21]
  TGI: > 100 µM
[22]
  TGI: > 100 µM
[23]
  TGI: > 100 µM
[24]
  TGI: > 100 µM
[25]
  TGI: > 100 µM
[26]
  TGI: > 100 µM
[27]
  TGI: > 100 µM
[28]
  TGI: > 100 µM
[29]
  TGI: > 100 µM
[30]
  TGI: > 100 µM
[31]
  TGI: > 100 µM
[32]
  TGI: > 100 µM
[33]
  TGI: > 100 µM
[34]
  TGI: > 100 µM
[35]
  TGI: > 100 µM
[36]
  TGI: > 100 µM
[37]
  TGI: > 100 µM
[38]
  TGI: > 100 µM
[39]
  TGI: > 100 µM
[40]
  TGI: > 100 µM
[41]
  TGI: > 100 µM
[42]
  TGI: > 100 µM
[43]
  TGI: > 100 µM
[44]
  TGI: > 100 µM
[45]
  TGI: > 100 µM
[46]
  TGI: > 100 µM
[47]
  TGI: > 100 µM
[48]
  TGI: > 100 µM
[49]
  TGI: > 100 µM
[50]
  TGI: > 100 µM
[51]
  TGI: > 100 µM
[52]
  TGI: > 100 µM

## Cc1cc(C)[n+](CCOc2ccc(/C(=C(/Cl)c3ccccc3)c3ccccc3)cc2)c(C)c1
[1]
  TGI: 13.1 µM
[2]
  TGI: 15.8 µM
[3]
  TGI: 1.84 µM
[4]
  TGI: 7.98 µM
[5]
  TGI: 12.7 µM
[6]
  TGI: 3.64 µM
[7]
  TGI: 8.35 µM
[8]
  TGI: 31.4 µM
[9]
  TGI: 5.21 µM
[10]
  TGI: 11.3 µM
[11]
  TGI: 6.03 µM
[12]
  TGI: 5.43 µM
[13]
  TGI: 3.58 µM
[14]
  TGI: 3.31 µM
[15]
  TGI: 30.2 µM
[16]
  TGI: 2.46 µM
[17]
  TGI: 4.92 µM
[18]
  TGI: 1.82 µM
[19]
  TGI: 4.32 µM
[20]
  TGI: 2.33 µM
[21]
  TGI: 6.94 µM
[22]
  TGI: 4.07 µM
[23]
  TGI: 27.5 µM
[24]
  TGI: 4.3 µM
[25]
  TGI: 11.2 µM
[26]
  TGI: 2.62 µM
[27]
  TGI: 4.14 µM
[28]
  TGI: 13.2 µM
[29]
  TGI: 6.54 µM
[53]
  TGI: 19.5 µM
[54]
  TGI: 2.7 µM
[31]
  TGI: 1.64 µM
[32]
  TGI: 12.4 µM
[33]
  TGI: 35.7 µM
[34]
  TGI: 9.06 µM
[35]
  TGI: 7.77 µM
[36]
  TGI: 2.01 µM
[37]
  TGI: 2.14 µM
[38]
  TGI: 17.4 µM
[55]
  TGI: 1.48 µM
[39]
  TGI: 3.28 µM
[40]
  TGI: 8.18 µM
[56]
  TGI: 20.3 µM
[41]
  TGI: 3.28 µM
[42]
  TGI: 6.88 µM
[43]
  TGI: 8.11 µM
[57]
  TGI: 2.18 µM
[44]
  TGI: 9.82 µM
[45]
  TGI: 11.1 µM
[46]
  TGI: 1.29 µM
[58]
  TGI: 7.55 µM
[47]
  TGI: 6.37 µM
[48]
  TGI: 8.41 µM
[49]
  TGI: 3.48 µM
[50]
  TGI: 0.961 µM
[51]
  TGI: 3.59 µM
[52]
  TGI: 13.5 µM

## CC1=NN(C(=O)CC(=O)N(C(=O)c2ccccc2Cl)c2ccc(C)cc2)C(=O)C1N=Nc1ccc([N+](=O)[O-])cc1 (stereo not drawn)
[1]
  TGI: > 100 µM
[2]
  TGI: > 66.1 µM
[4]
  TGI: 38.6 µM
[5]
  TGI: > 90.1 µM
[6]
  TGI: > 100 µM
[7]
  TGI: > 68.5 µM
[8]
  TGI: > 100 µM
[9]
  TGI: > 100 µM
[10]
  TGI: > 100 µM
[11]
  TGI: > 100 µM
[12]
  TGI: > 60.5 µM
[13]
  TGI: > 100 µM
[14]
  TGI: > 68.8 µM
[15]
  TGI: > 100 µM
[16]
  TGI: > 100 µM
[17]
  TGI: > 53.7 µM
[18]
  TGI: > 100 µM
[19]
  TGI: > 100 µM
[20]
  TGI: > 100 µM
[21]
  TGI: > 100 µM
[22]
  TGI: > 100 µM
[23]
  TGI: > 63.5 µM
[24]
  TGI: > 72 µM
[25]
  TGI: > 100 µM
[26]
  TGI: > 100 µM
[27]
  TGI: 48.9 µM
[28]
  TGI: > 100 µM
[29]
  TGI: 69.6 µM
[30]
  TGI: > 100 µM
[53]
  TGI: > 100 µM
[54]
  TGI: > 78.5 µM
[31]
  TGI: > 100 µM
[32]
  TGI: > 100 µM
[33]
  TGI: > 93.6 µM
[34]
  TGI: > 100 µM
[35]
  TGI: 77.5 µM
[36]
  TGI: > 100 µM
[37]
  TGI: > 57.4 µM
[38]
  TGI: > 67.7 µM
[55]
  TGI: > 95.7 µM
[39]
  TGI: > 70.7 µM
[40]
  TGI: > 76.5 µM
[56]
  TGI: > 100 µM
[41]
  TGI: > 100 µM
[42]
  TGI: > 100 µM
[43]
  TGI: > 80.8 µM
[57]
  TGI: > 100 µM
[44]
  TGI: 51.4 µM
[45]
  TGI: > 53.6 µM
[46]
  TGI: > 100 µM
[58]
  TGI: > 100 µM
[47]
  TGI: > 100 µM
[48]
  TGI: 78.1 µM
[49]
  TGI: > 100 µM
[50]
  TGI: > 58 µM
[51]
  TGI: > 70.3 µM
[52]
  TGI: > 100 µM

## O=C1CC2C(=O)N(Cc3ccccc3)C1C=C2S(=O)(=O)c1ccccc1 (stereo not drawn)
[1]
  TGI: > 100 µM
[2]
  TGI: > 100 µM
[3]
  TGI: > 100 µM
[4]
  TGI: > 100 µM
[5]
  TGI: > 100 µM
[6]
  TGI: > 100 µM
[7]
  TGI: > 100 µM
[8]
  TGI: > 100 µM
[9]
  TGI: > 100 µM
[10]
  TGI: > 100 µM
[11]
  TGI: > 100 µM
[12]
  TGI: > 100 µM
[13]
  TGI: > 100 µM
[14]
  TGI: > 100 µM
[15]
  TGI: > 100 µM
[16]
  TGI: > 100 µM
[17]
  TGI: > 100 µM
[18]
  TGI: > 100 µM
[19]
  TGI: > 100 µM
[20]
  TGI: > 100 µM
[21]
  TGI: > 100 µM
[22]
  TGI: > 100 µM
[24]
  TGI: > 100 µM
[25]
  TGI: > 100 µM
[26]
  TGI: > 100 µM
[27]
  TGI: > 100 µM
[28]
  TGI: > 100 µM
[29]
  TGI: > 100 µM
[30]
  TGI: > 100 µM
[53]
  TGI: > 100 µM
[54]
  TGI: > 100 µM
[31]
  TGI: > 100 µM
[33]
  TGI: > 100 µM
[34]
  TGI: > 100 µM
[35]
  TGI: > 100 µM
[36]
  TGI: > 100 µM
[37]
  TGI: > 100 µM
[38]
  TGI: > 100 µM
[39]
  TGI: > 100 µM
[40]
  TGI: > 100 µM
[41]
  TGI: > 100 µM
[42]
  TGI: > 100 µM
[43]
  TGI: > 100 µM
[44]
  TGI: > 100 µM
[45]
  TGI: > 100 µM
[46]
  TGI: > 100 µM
[58]
  TGI: > 100 µM
[47]
  TGI: > 100 µM
[48]
  TGI: > 100 µM
[49]
  TGI: > 100 µM
[50]
  TGI: > 100 µM
[52]
  TGI: > 100 µM
